Where two headings read alike, the source gives them in different places.
Assays:
[1] = biological target: T1, CCL22 T56A (Homo sapiens, UniProt O00626, T56A); experiment: Calcium responses induced by chemokine mutant, neutraligand protocol; assay type: cell-based; settings: 10 μM compound, 5 nM chemokine; remaining response
T1 construct: codes for the mature CCL17 or CCL22 with an N-terminal thioredoxin-hexahistidin (TRX- (His)6) tag; TRX-(His)6 (N, cleaved yes); made in house; host or cells: E. coli BL21 (DE3)

[2] = biological target: T2, CCL22 (Homo sapiens, UniProt O00626); experiment: Tryptophan fluorescence assay on CCL22; assay type: binding
T2 construct: codes for the mature CCL17 or CCL22 with an N-terminal thioredoxin-hexahistidin (TRX- (His)6) tag; thioredoxin (TRX) (N, cleaved yes); (His)6 (N, cleaved yes); made in house; host or cells: E. coli BL21 (DE3)
T2 sequence (O00626 25-93): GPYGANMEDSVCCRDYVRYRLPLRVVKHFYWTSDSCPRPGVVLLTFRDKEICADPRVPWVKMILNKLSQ
Description: Fluorescence measurements were performed on a spectrofluorometer (JobinYvon/Spex) in a quartz microcuvette at 20 °C. […] The fluorescence emission spectra were corrected by subtracting the emission scan of the compounds alone and data analysis was carried out with fluorescence intensities detected at 340 nm.

[3] = Solubility measurements (RP-HPLC); assay type: physicochemical; settings: kinetic from dmso stock, dissolved at 10 µM, room temperature
Description: Standard stock solutions of compounds (10mM) were prepared in DMSO, and the molecules were dissolved at a concentration of 10µM in each of the three buffers. The samples were shaken for 1h at room temperature, and centrifuged at 15,000×g . The compounds concentration in the supernatant solutions was determined using RP-HPLC (Gilson) technique. The measurements were done with a UV detector set at 230nm. The measurements were carried out at room temperature using a C18 column ([…], 50×4.6mm, Phenomenex). The aqueous mobile phase contained 0.05% trifluoroacetic acid (solvent A, Sigma-Aldrich). The organic phase was HPLC grade acetonitrile (Sigma-Aldrich CHROMASOLV) (solvent B). The mobile phase flow rate was 2ml/min, and the following program was applied for the elution: 0–0.1min, 5% B; 0.1–2.6min, 5–95% B; 2.6–3.1min, 95% B; 3.1–3.3min, 95–5% B; and 3.3–6min, 5% B. To establish external calibration curves, increasing concentrations of each compound were prepared from standard stock solutions.
The chromatograms were recorded by injecting 20µl of each standard solution, and the calibration curves were plotted using peak areas. […]

[4] = tested on: CCR4+ HUT78 cells; experiment: HUT78 chemotaxis: compounds alone or preincubated with the cells (antagonist protocol); assay type: cell-based, human; settings: for chemotactic activity of the compound by itself: HUT78 cells, no chemokine; for inhibition of CCR4+ HUT78 T cell migration, compound preincubated with the cells: receptor antagonist protocol, 1 μM, 3 nM CCL17 or CCL22
Description: Cell migration was carried out in RPMI1640-BSA (0.1%) using Transwell 96-well plates (Corning Costar, 5 μm pore size, polycarbonate membranes). […] Lower wells contained the same medium diluted with DMSO or chemokine (3 nM CCL17 or CCL22).
0.1% BSA using Transwell 96-well plates (Corning Costar, 5µm pore size, polycarbonate […]
the same medium diluted with DMSO or chemokine (3nM CCL17 or CCL22). In neutraligand inhibition studies, prior to their use, CCL17 (a) and CCL22 (b) were pre-incubated with […]
in the lower compartment. For characterization of the antagonist properties, the compounds were pre-incubated with the cells in the upper compartment. C-021 (1µM, stripped bars), the CCR4 receptor antagonist, was used as a control in both incubation protocols. Results are expressed as the percentage of cells that migrated to the lower chamber. Data represent the means±SD. Experiments were performed in triplicate.
(1 picture or pasted object on this page, not shown here)

[5] = tested on: Balb/c mice sensitized and challenged with OVA; experiment: Mouse model of allergic eosinophilic airway inflammation (OVA), BAL cell counts; assay type: in vivo; settings: vs vehicle-treated OVA mice; for overall number of inflammatory cells in BALF: 350 μmol/kg I.P. 2 h before each challenge; for CD4+ T cells in BALF / CD11c+F4/80− dendritic cells in BALF / T cells in BALF / neutrophil counts in BALF / number of CD11c+F4/80+ macrophages in BALF / recruited eosinophils in BALF: 350 μmol/kg I.P.
Description: The differential number of cells recovered in BAL fluid 24 h after the last challenge was counted by flow cytometry. Live leukocytes were identified as CD45^+DAPI^− cells then differentiated into T cells (CD11b^lowCD19^−CD3^+), CD4^+T cells (CD11b^lowCD19^−CD3^+CD4^+), eosinophils (CD11b^+CD11c^−GR1^−), neutrophils (CD11b^+CD11c^−GR1^+), macrophages (CD11b^+GR1^−CD11c^+F4/80^+), dendritic cells (CD11b^+GR1^−CD11c^+F4/80^−).
Nine week-old male Balb/c mice (Janvier) were sensitized on days 1 and 7 by intraperitoneal injection of ovalbumin (OVA, 50μg, grade V, Sigma-Aldrich) adsorbed on aluminium hydroxide (2 mg, Sigma-Aldrich) in PBS. Mice were challenged intranasally with OVA (10 μg) in 25μl of saline on days 18–21. Control mice received intranasal administrations of saline alone. […] Animal experimentation was approved by the local ethics committee (Comité Régional d’Ethique en Matière d’Expérimentation Animale de Strasbourg CREMEAS) and carried out in accordance with the approved guidelines. Collection of the bronchoalveolar lavage fluid (BALF) was performed 24 h after the last OVA challenge as described previously. Cell counts were assessed by flow cytometry (LSRII® cytometer, BD bioscience). BAL cells were added with FCblock (5 μl, 553142, BD bioscience) in a black microplate, incubated for 20 min at room temperature. Then, marker antibodies were added: CD11c-FITC (557400, BD bioscience), Gr-1-Pe-eFluor610 (61-5931-82, eBioscience), CD11b-APC-Cy7 (557657, BD bioscience), CD45-AlexaFluor700 (103128, BioLegend), CD3-BV605 (564009, BD bioscience), CD4-PerCP-Cy5.5 (45-0042-82, eBioscience), F4/80-PE (12-4801-82, eBioscience). Antibodies were incubated for 30 min before DAPI (5 μl, BD bioscience) addition, and flow cytometry was performed immediately.

[6] = HEPES buffer, aqueous buffer, read-out: solubility in HEPES buffer
[7] = complete cell culture medium, plasma or biological fluid, read-out: solubility in the cell culture medium

T1 sequence (O00626 25-93 T56A): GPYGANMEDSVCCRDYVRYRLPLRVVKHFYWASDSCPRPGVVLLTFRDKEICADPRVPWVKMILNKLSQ

| SMILES | calcium response induced by CCL22 T56A preincubated with compound [1] | Kd ([2]; 1.5 μM CCL22, tryptophan fluorescence at 340 nm, estimated, read-out: KD, high-affinity binding site class, on CCL22) | Kd ([2]; […] CCL22, tryptophan fluorescence at 340 nm, read-out: KD, low-affinity binding site class, on CCL22) | solubility at 1 h [3, 6] | solubility at 1 h [3, 7] | chemotactic activity of the compound by itself [4] | inhibition of CCR4+ HUT78 T cell migration, compound preincubated with the cells [4] | overall number of inflammatory cells in BALF [5] | CD4+ T cells in BALF [5] | CD11c+F4/80− dendritic cells in BALF [5] | T cells in BALF [5] | neutrophil counts in BALF [5] | number of CD11c+F4/80+ macrophages in BALF [5] | recruited eosinophils in BALF [5] |
| --- | --- | --- | --- | --- | --- | --- | --- | --- | --- | --- | --- | --- | --- | --- |
| O=C(OCC(O)CO)c1ccccc1O (centres unmarked) [GPN136, 2,3-dihydroxypropyl 2-hydroxybenzoate] | 40.0 ± 6.0% | < 0.05 µM | 53 µM | > 10 µM | > 10 µM | devoid of chemotactic activity | no ability to inhibit | significantly reduced | significantly reduced | significantly reduced | significantly reduced | did not | not modified | significantly reduced |
| CC(C)=CCn1cnc2c1c(=O)n(C)c(=O)n2C [GPN279, 1,3-dimethyl-7-(3-methylbut-2-enyl)-1H-purine-2,6(3H, 7H)-dione] | neither inhibited WT nor CCL22 mutants |  |  | > 10 µM | > 10 µM | devoid of chemotactic activity | no ability to inhibit | significantly reduced | significantly reduced | significantly reduced | significantly reduced | significantly inhibited | not modified | significantly reduced |

Source: paper PMC4595804, “A strategy to discover decoy chemokine ligands with an anti-inflammatory activity” (Scientific Reports, 2015)
